# Active and inactive are the calls of the source. The calls are words filed in the database; no cut-off is given here.
# What was measured:
# [1] = tested on: SMMC-7721; experiment: Antiproliferative activity against human […] cells assessed as inhibition of cell proliferation at 30 uM measured after 48 hrs by MTT assay relative to control; type: functional
# [2] = tested on: SMMC-7721; experiment: Antiproliferative activity against human […] cells assessed as inhibition of cell proliferation at 100 uM measured after 48 hrs by MTT assay relative to control; type: functional
# [3] = tested on: HepG2; experiment: Antiproliferative activity against human HepG2 cells assessed as inhibition of cell proliferation at 30 uM measured after 48 hrs by MTT assay relative to control; type: functional
# [4] = tested on: HepG2; experiment: Antiproliferative activity against human HepG2 cells assessed as inhibition of cell proliferation at 100 uM measured after 48 hrs by MTT assay relative to control; type: functional
# [5] = Cytotoxicity against human QSG7701 cells assessed as inhibition of cell proliferation at 30 uM measured after 48 hrs by MTT assay relative to control; type: cell-based
# [6] = Cytotoxicity against human QSG7701 cells assessed as inhibition of cell proliferation at 100 uM measured after 48 hrs by MTT assay relative to control; type: cell-based
# [7] = tested on: SMMC-7721; experiment: Antiproliferative activity against human […] cells assessed as inhibition of cell proliferation at 1 uM measured after 48 hrs by MTT assay relative to control; type: functional
# [8] = tested on: SMMC-7721; experiment: Antiproliferative activity against human […] cells assessed as inhibition of cell proliferation at 5 uM measured after 48 hrs by MTT assay relative to control; type: functional
# [9] = tested on: HepG2; experiment: Antiproliferative activity against human HepG2 cells assessed as inhibition of cell proliferation at 1 uM measured after 48 hrs by MTT assay relative to control; type: functional
# [10] = tested on: HepG2; experiment: Antiproliferative activity against human HepG2 cells assessed as inhibition of cell proliferation at 5 uM measured after 48 hrs by MTT assay relative to control; type: functional
# [11] = Cytotoxicity against human QSG7701 cells assessed as inhibition of cell proliferation at 1 uM measured after 48 hrs by MTT assay relative to control; type: cell-based
# [12] = Cytotoxicity against human QSG7701 cells assessed as inhibition of cell proliferation at 5 uM measured after 48 hrs by MTT assay relative to control; type: cell-based
# [13] = tested on: H22; experiment: Antitumor activity against mouse H22 cells implanted in Kunming mouse assessed as reduction in tumor weight at 0.4 mg/kg, iv administered for 7 consecutive days starting from day 8 post inoculation and measured after 16 days (reference value: 2.15 +/- 0.51 g); type: functional; settings: time 8 day
# [14] = tested on: H22; experiment: Antitumor activity against mouse H22 cells implanted in Kunming mouse assessed as tumor growth inhibition at 0.4 mg/kg, iv administered for 7 consecutive days starting from day 8 post inoculation and measured after 16 days relative to control; type: functional; settings: 192 h, time 8 day, read-out: TGI
# [15] = Toxicity in Kunming mouse implanted with mouse H22 cells assessed as change in mouse body weight at 0.4 mg/kg, iv administered for 7 consecutive days starting from day 8 post inoculation and measured after 16 days (reference value: 21 %); type: organism-based; settings: in vivo, 192 h, time 8 day
# [16] = Toxicity in iv dosed Kunming mouse assessed as maximum tolerated dose; type: organism-based; settings: in vivo
# [17] = tested on: H22; experiment: Antimetastatic activity against mouse H22 cells implanted in Kunming mouse assessed as number of metastatic focus at 0.4 mg/kg, iv administered for 7 consecutive days starting from day 11 post inoculation and measured after 18 days (reference value: 5.73 +/- 14.6); type: functional; settings: time 8 day
# [18] = tested on: H22; experiment: Antimetastatic activity against mouse H22 cells implanted in Kunming mouse assessed as inhibition of metastasis at 0.4 mg/kg, iv administered for 7 consecutive days starting from day 11 post inoculation and measured after 18 days relative to control; type: functional; settings: 192 h, time 8 day
# [19] = Toxicity in Kunming mouse implanted with mouse H22 cells assessed as change in body weight at 0.4 mg/kg, iv administered for 7 consecutive days starting from day 11 post inoculation and measured after 18 days (reference value: 5.2 %); type: organism-based; settings: in vivo, 192 h, time 8 day
# [20] = Toxicity in Kunming mouse implanted with mouse H22 cells assessed as mouse mortality at 0.4 mg/kg, iv administered for 7 consecutive days starting from day 8 post inoculation and measured after 16 days; type: organism-based; settings: in vivo, 192 h, time 8 day
# [21] = tested on: Mus musculus; experiment: Upregulation of phosphorylated p38 in Kunming mouse implanted with mouse H22 cells assessed as activation of p53 at 800 uM measured after 48 hrs by immunofluorescence analysis; type: functional
# [22] = tested on: Mus musculus; experiment: Upregulation of phosphorylated JNK in Kunming mouse implanted with mouse H22 cells assessed as activation of p53 at 800 uM measured after 48 hrs by immunofluorescence analysis; type: functional
# [23] = tested on: Mus musculus; experiment: Downregulation of Bcl-2 in Kunming mouse implanted with mouse H22 cells at 800 uM measured after 48 hrs by immunofluorescence analysis; type: functional
# [24] = tested on: HepG2; experiment: Induction of mitochondrial membrane potential loss in human HepG2 cells at 80 uM after 48 hrs by Rh123 staining based assay; type: functional, cell-based
# [25] = tested on: HepG2; experiment: Induction of lysosomal impairment in human HepG2 cells at 80 uM after 48 hrs by Lyso-tracker Red staining based assay; type: functional, cell-based
# [26] = tested on: HepG2; experiment: Induction of ROS generation in human HepG2 cells at 80 uM after 48 hrs by DCFH-DA staining based assay; type: functional, cell-based
# [27] = tested on: HepG2; experiment: Induction of apoptosis in human HepG2 cells assessed as activation of caspase 3 at 80 uM measured after 48 hrs by immunofluorescence assay; type: functional, cell-based
# [28] = tested on: HepG2; experiment: Induction of apoptosis in human HepG2 cells assessed as activation of caspase 8 at 80 uM measured after 48 hrs by immunofluorescence assay; type: functional, cell-based
# [29] = tested on: HepG2; experiment: Induction of apoptosis in human HepG2 cells assessed as activation of caspase 9 at 80 uM measured after 48 hrs by immunofluorescence assay; type: functional, cell-based
# [30] = tested on: H22; experiment: Antitumor activity against mouse H22 cells implanted in Kunming mouse assessed as reduction in tumor weight at 100 mg/kg, iv administered for 7 consecutive days starting from day 8 post inoculation and measured after 16 days (reference value: 2.15 +/- 0.51 g); type: functional; settings: time 8 day
# [31] = tested on: H22; experiment: Antitumor activity against mouse H22 cells implanted in Kunming mouse assessed as tumor growth inhibition at 100 mg/kg, iv administered for 7 consecutive days starting from day 8 post inoculation and measured after 16 days relative to control; type: functional; settings: 192 h, time 8 day, read-out: TGI
# [32] = Toxicity in Kunming mouse implanted with mouse H22 cells assessed as change in mouse body weight at 100 mg/kg, iv administered for 7 consecutive days starting from day 8 post inoculation and measured after 16 days (reference value: 21 %); type: organism-based; settings: in vivo, 192 h, time 8 day
# [33] = tested on: H22; experiment: Antimetastatic activity against mouse H22 cells implanted in Kunming mouse assessed as inhibition of metastasis at 100 mg/kg, iv administered for 7 consecutive days starting from day 11 post inoculation and measured after 18 days relative to control; type: functional; settings: 192 h, time 8 day
# [34] = Toxicity in Kunming mouse implanted with mouse H22 cells assessed as change in body weight at 100 mg/kg, iv administered for 7 consecutive days starting from day 11 post inoculation and measured after 18 days (reference value: 5.2 %); type: organism-based; settings: in vivo, 192 h, time 8 day
# [35] = Toxicity in Kunming mouse implanted with mouse H22 cells assessed as mouse mortality at 100 mg/kg, iv administered for 7 consecutive days starting from day 8 post inoculation and measured after 16 days; type: organism-based; settings: in vivo, 192 h, time 8 day
SMILES,inhibition at 30 µM [1] [%],inhibition at 100 µM [2] [%],inhibition at 30 µM [3] [%],inhibition at 100 µM [4] [%],"inhibition at 48 h, 30 µM [5] [%]","inhibition at 48 h, 100 µM [6] [%]",further results
NCCCCNCC(=O)NCc1cccc2c(=O)cc(-c3cccc4ccccc34)oc12,< 5,39.8,< 5,16.1,< 5,10.6,–
O=C1c2c(O)ccc(O)c2C(=O)c2c(NCCNCCO)ccc(NCCNCCO)c21 [MITOXANTRONE],–,–,–,–,–,–,"inhibition at 1 µM [7]: 20.5%; inhibition at 5 µM [8]: 62.2%; inhibition at 1 µM [9]: 41.2%; inhibition at 5 µM [10]: 78.6%; inhibition at 48 h, 1 µM [11]: 75.8%; inhibition at 48 h, 5 µM [12]: 82.5%; Activity [13]: 0.57 g; inhibition in vivo at 0.4 mg/kg [14]: 73.4%; Activity [15]: -6.6%; MTD [16]: 0.4 mg/kg; Activity [17]: 29.1; inhibition in vivo at 0.4 mg/kg [18]: 49.2%; Activity [19]: -0.8%; Activity [20]: Non-Toxic"
CC(=O)Oc1ccccc1C(=O)O,–,–,–,–,–,–,Activity [21]: Active; Activity [22]: Active; Activity [23]: Active
CCCCNCC(=O)NCc1cccc2c(=O)cc(-c3cccc4ccccc34)oc12,14.6,28.4,6,21.6,19.6,41.7,–
NCCCCNCCCCNCC(=O)NCc1cccc2c(=O)cc(-c3cccc4ccccc34)oc12,70.2,85.5,62,75.9,46.7,74.4,–
CN(C)CCNCC(=O)NCc1cccc2c(=O)cc(-c3cccc4ccccc34)oc12,< 5,16.6,< 5,7.5,< 5,17.9,–
O=c1c(O)c(-c2ccc(O)c(O)c2)oc2cc(O)cc(O)c12 [QUERCETIN],29.5,62.9,33.2,56.3,< 5,36,Activity [24]: Active; Activity [25]: Active; Activity [26]: Active; Activity [27]: Active; Activity [28]: Active; Activity [29]: Active; Activity [30]: 1.3 g; inhibition in vivo at 100 mg/kg [31]: 39.7%; Activity [32]: 6.3%; inhibition in vivo at 100 mg/kg [33]: 34.1%; Activity [34]: 2.1%; Activity [35]: Non-Toxic
NCCCCNCCCNCC(=O)NCc1cccc2c(=O)cc(-c3cccc4ccccc34)oc12,7.6,32.5,< 5,28.9,< 5,22.4,–

# Reference: ChEMBL document CHEMBL4715719, “Synthesis and biological properties of polyamine modified flavonoids as hepatocellular carcinoma inhibitors” (Eur J Med Chem, 2016)
